Laboratory results as given in ChEMBL document CHEMBL3399989, “PTP1B inhibitors from stems of Angelica keiskei (Ashitaba)” (Bioorg Med Chem Lett, 2015).
Active and inactive are the calls of the source. No cut-off for these calls is given here.

Key:
[1] = biological target: T1, Tyrosine-protein phosphatase non-receptor type 1 (Homo sapiens, UniProt P18031); experiment: Inhibition of PTP1B (unknown origin) using pNPP substrate measured after 3 mins by colorimetric assay
T1 sequence (P18031 whole entry): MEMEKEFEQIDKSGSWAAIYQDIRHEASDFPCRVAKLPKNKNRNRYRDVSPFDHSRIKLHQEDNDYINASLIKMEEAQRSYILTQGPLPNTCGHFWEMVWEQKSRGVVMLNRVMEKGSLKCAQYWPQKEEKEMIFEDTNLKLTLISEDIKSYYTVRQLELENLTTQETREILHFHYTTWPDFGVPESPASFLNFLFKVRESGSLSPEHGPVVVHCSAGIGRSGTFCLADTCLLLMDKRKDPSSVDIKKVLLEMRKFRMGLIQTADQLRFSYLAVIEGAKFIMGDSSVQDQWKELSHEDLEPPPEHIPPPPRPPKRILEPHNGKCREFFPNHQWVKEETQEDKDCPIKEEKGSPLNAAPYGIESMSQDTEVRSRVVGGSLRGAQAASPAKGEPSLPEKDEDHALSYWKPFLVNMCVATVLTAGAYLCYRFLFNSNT

[2] = biological target: T2, Tyrosine-protein phosphatase non-receptor type 1 (Homo sapiens) (UniProt P18031); experiment: Inhibition of PTP1B (unknown origin) at 20 ug/ml using pNPP substrate measured after 3 mins by colorimetric assay
T2 sequence (whole entry): T1 sequence (P18031 whole entry)

[3] = biological target: T2, Tyrosine-protein phosphatase non-receptor type 1 (Homo sapiens); experiment: Competitive inhibition of PTP1B (unknown origin) assessed as unchanged Vmax level at 1.5 to 6 uM using pNPP substrate by colorimetric method based Lineweaver-Burk plot method
[4] = biological target: T2, Tyrosine-protein phosphatase non-receptor type 1 (Homo sapiens); experiment: Inhibition of PTP1B (unknown origin) using pNPP substrate by colorimetric method based enzyme kinetics assay; conditions: TDE = time-dependent effect
[5] = biological target: T2, Tyrosine-protein phosphatase non-receptor type 1 (Homo sapiens); experiment: Fast-binding inhibition of PTP1B (unknown origin) using pNPP substrate by colorimetric method based enzyme kinetics assay
[6] = biological target: T2, Tyrosine-protein phosphatase non-receptor type 1 (Homo sapiens); experiment: Competitive inhibition of PTP1B (unknown origin) assessed as increase in substrate Km at 1.5 to 6 uM using pNPP substrate by colorimetric method based Lineweaver-Burk plot method

| Compound | IC50 [1] [µM] | inhibition [2] [%] | other results |
| --- | --- | --- | --- |
| C=C[C@@H](O)C#CC#C[C@@H](O)/C=C\CCCCCCC [FALCARINDIOL] | 31.6 | 97.8 | – |
| C[C@@H]1O[C@@H](Oc2c(-c3ccc(O)c(O)c3)oc3cc(O)cc(O)c3c2=O)[C@H](O)[C@H](O)[C@H]1O [QUERCITRIN] | 39 | 64.4 | – |
| COc1c2occc2cc2ccc(=O)oc12 | – | < 50 | – |
| O=c1c(O[C@@H]2O[C@H](CO)[C@H](O)[C@H](O)[C@H]2O)c(-c2ccc(O)c(O)c2)oc2cc(O)cc(O)c12 | – | < 50 | – |
| COc1ccc(C(=O)/C=C/c2ccc(O)cc2)c2c1[C@H](OC)[C@H](O)C(C)(C)O2 | – | < 50 | – |
| C/C=C(/C)C(=O)O[C@H]1[C@@H](O)c2c(ccc3ccc(=O)oc23)OC1(C)C | – | < 50 | – |
| O=c1c(O[C@@H]2OC[C@H](O)[C@H](O)[C@H]2O)c(-c2ccc(O)c(O)c2)oc2cc(O)cc(O)c12 | – | < 50 | – |
| CCOC1c2c(OC)ccc(C(=O)/C=C/c3ccc(O)cc3)c2OC1C(C)(C)O (centres undefined) | 11.1 | 91.9 | – |
| C=C(C)C(O)Cc1c(OC)ccc(C(=O)/C=C/c2ccc(O)cc2)c1O (centres undefined) [XANTHOANGELOL D] | 11.2 | 96.8 | – |
| COc1ccc(C(=O)/C=C/c2ccc(O)cc2)c2c1C(O)C(C(C)(C)O)O2 (centres undefined) | – | < 50 | – |
| O=c1cc(-c2ccc(O)c(O)c2)oc2cc(O[C@@H]3O[C@H](CO)[C@@H](O)[C@H](O)[C@H]3O)cc(O)c12 | – | < 50 | – |
| C=C(C)C(Cc1c(OC)ccc(C(=O)/C=C/c2ccc(O)cc2)c1O)OO (centres undefined) | 3.86 | 99.4 | – |
| CC1(C)Oc2ccc3ccc(=O)oc3c2[C@@H](O)[C@H]1O (relative stereo) | 39.7 | 92.3 | – |
| COc1ccc(C(=O)/C=C/c2ccc(O)cc2)c(O)c1CC=C(C)C | 7.3 | 86 | – |
| CC(C)C(=O)O[C@H]1Cc2c(ccc3ccc(=O)oc23)OC1(C)C | 30.3 | 93.7 | – |
| C/C=C(/C)C(=O)O[C@@H]1Cc2c(ccc3ccc(=O)oc23)OC1(C)C [JATAMANSIN] | 35.2 | 93.5 | – |
| C/C=C(/C)C(=O)O[C@H]1c2c(ccc3ccc(=O)oc23)OC(C)(C)[C@H]1O | – | < 50 | – |
| COc1ccc(C(=O)/C=C/c2ccc(O)cc2)c2c1[C@H](O)[C@H](O)C(C)(C)O2 | – | < 50 | – |
| CC(C)=CCC/C(C)=C/Cc1c(O)ccc(C(=O)/C=C/c2ccc(O)cc2)c1O [XANTHOANGELOL] | 5.02 | 79.8 | – |
| COc1ccc(C(=O)/C=C/c2ccc(O)cc2)c(O)c1C/C=C(\C)CCC=C(C)C [XANTHOANGELOL F] | 4.11 | 96.8 | – |
| COc1c2ccoc2cc2oc(=O)ccc12 [BERGAPTEN] | 11.7 | 98.4 | – |
| C=C(C)C(=O)Cc1c(OC)ccc(C(=O)/C=C/c2ccc(O)cc2)c1O | 2.33 | 85.2 | inhibition [3]: Active; inhibition [4]: tde; inhibition [5]: Active; inhibition [6]: Active |
